From PMC9496321, “6-Furopyridine Hexamethylene Amiloride Is a Non-Selective P2X7 Receptor Antagonist” (Biomolecules, 2022)

Assays:
[1] = tested on: human uPA; design: method as in PMID 33804289; details: cited from earlier work
[2] = biological target: T1, hP2X4 (Homo sapiens, UniProt Q99571); assay: Fura-2AM Ca2+ response assay in HEK-hP2X4 cells; type: cell-based
T1 construct: expressed in transfected cells; host or cells: HEK293 cells, transient transfection
T1 sequence (Q99571 1-388): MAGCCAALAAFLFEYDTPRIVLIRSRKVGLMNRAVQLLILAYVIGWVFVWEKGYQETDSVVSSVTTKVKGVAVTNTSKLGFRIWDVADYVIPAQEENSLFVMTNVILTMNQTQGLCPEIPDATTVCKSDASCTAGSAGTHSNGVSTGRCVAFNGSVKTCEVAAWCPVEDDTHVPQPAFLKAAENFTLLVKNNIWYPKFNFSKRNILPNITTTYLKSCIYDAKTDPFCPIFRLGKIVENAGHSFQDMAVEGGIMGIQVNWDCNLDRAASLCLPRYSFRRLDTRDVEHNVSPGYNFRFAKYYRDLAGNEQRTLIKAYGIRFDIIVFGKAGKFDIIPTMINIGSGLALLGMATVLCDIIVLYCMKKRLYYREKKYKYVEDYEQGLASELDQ
Method: HEK293 cells were plated at 3.5 × 10^5 cells/well in 2 mL of complete DMEM/F12 medium and incubated (37 °C, 95% air/5% CO2, overnight). Cells were transfected with mP2X7-GFP (HEK-mP2X7), cP2X7-GFP (HEK-cP2X7) or hP2X4-EmGFP (HEK-hP2X4) plasmids, or mock transfected with an equivalent volume of sterile Milli-Q water (Merck Millipore, Burlington, NJ, USA), using Lipofectamine 3000 according to the manufacturer’s instructions. Cells were used for assays 48 h post-transfection. To determine transfection efficiency, cells were washed twice with D-PBS and data collected with an LSR Fortessa X-20 flow cytometer (BD Biosciences). The proportion of GFP positive cells was determined using FlowJo software v8.7.1 (BD Biosciences).
Ca^2+ response assays were conducted as described. […] Fura-2 fluorescence at 510 nm was measured every 5 s using a FlexStation 3 (Molecular Devices, San Jose, CA, USA). […] Relative changes in intracellular Ca^2+ were calculated using the ratio of Fura-2AM fluorescence at 510 nm following excitation at 340 nm and 380 nm (F340nm/380nm). […] To determine relative P2X-mediated Ca^2+ responses, the area under the curve from 100 to 180 s was calculated with GraphPad Prism. To determine P2Y-mediated Ca^2+ responses the area under the curve from 30 to 100 s was calculated. In both cases, ATP-induced responses were calculated by subtracting the corresponding basal response. […]

[3] = biological target: T2, P2X7 (Homo sapiens, UniProt Q99572); assay: ATP-induced YO-PRO-1 uptake into human T cells (PBMCs); type: cell-based; design: Human peripheral blood mononuclear cells (PBMCs) were pre-incubated with DMSO (vehicle) or 30 μM 6-FPHMA; endogenous in cells; host or cells: cryopreserved human PBMCs (CD3+, CD4+, CD8+ T cells), four donors; details: 30 μM compound, 1 mM ATP
T2 sequence (Q99572 1-595): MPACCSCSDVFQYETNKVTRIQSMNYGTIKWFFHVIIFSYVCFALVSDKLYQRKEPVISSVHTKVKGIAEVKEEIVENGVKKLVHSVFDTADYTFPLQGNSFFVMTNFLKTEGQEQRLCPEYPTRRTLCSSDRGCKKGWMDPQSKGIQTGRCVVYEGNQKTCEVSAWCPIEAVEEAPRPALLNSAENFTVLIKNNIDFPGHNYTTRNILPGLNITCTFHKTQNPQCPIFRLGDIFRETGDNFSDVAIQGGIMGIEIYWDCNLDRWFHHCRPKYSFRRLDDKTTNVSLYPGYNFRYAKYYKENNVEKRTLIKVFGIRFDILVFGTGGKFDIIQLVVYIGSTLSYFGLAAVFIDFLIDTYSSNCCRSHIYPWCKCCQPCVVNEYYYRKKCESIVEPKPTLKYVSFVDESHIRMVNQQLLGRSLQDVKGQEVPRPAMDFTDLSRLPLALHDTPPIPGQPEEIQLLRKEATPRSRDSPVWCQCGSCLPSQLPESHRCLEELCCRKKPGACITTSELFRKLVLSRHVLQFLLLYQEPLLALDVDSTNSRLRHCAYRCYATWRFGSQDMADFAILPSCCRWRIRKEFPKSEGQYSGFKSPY
Method: ATP-mediated uptake assays were conducted as described with either ethidium bromide or YO-PRO-1 iodide. Briefly, RPMI8226, HEK-hP2X7, HEK-mP2X7, HEK-cP2X7 or cryopreserved human peripheral blood mononuclear cells (PBMCs) were washed thrice with LDM (300× g, 5 min), resuspended in LDM and 1 × 10^6 cells were added to individual tubes. Cells were pre-incubated in the absence of compound (37 °C, 5 min) or in the presence of compound or vehicle (DMSO) (37 °C, 15 min) as indicated. […] An equal volume of ice-cold Mg^2+ stop solution was added and cells centrifuged (300× g, 5 min). Cells were washed twice in LDM (300× g, 5 min), resuspended and data were collected with an LSR Fortessa X-20 flow cytometer. MFI of ethidium^+ or YO-PRO-1^2+ was determined using FlowJo.

[4] = tested on: NHE1; design: method as in PMID 33804289; details: cited from earlier work

Structure (SMILES): N=C(N)NC(=O)c1nc(-c2cc3cnccc3o2)c(N2CCCCCC2)nc1N [6-FPHMA, 6-furopyridine-substituted 5-(N,N-hexamethylene) amiloride]
- inhibition of human uPA [1]: inhibit
- inhibition at 100 µM [2]: 100%
- IC50 ([2]; read-out: IC50, hP2X4-mediated Ca2+ flux): 3.95 ± 0.19 µM
- reduction of ATP-induced YO-PRO-1 uptake into CD3+ T cells [3]: 62 ± 3%
- reduction of ATP-induced YO-PRO-1 uptake into CD4+ T cells [3]: 62 ± 3%
- reduction of ATP-induced YO-PRO-1 uptake into CD8+ T cells [3]: 62 ± 4%
- inhibition of NHE1 [4]: inhibit
